Data taken from US10239957B2, “Peptide containing conjugates for dual molecular delivery of oligonucleotides” (Merck Sharp & Dohme Corp., priority 2013, dated 2019).
Where no end group is shown, it is not given here. [ ]: non-standard residue; d: D form.

System: CTNNB1
Experiment: In vitro DMD assay: mRNA silencing enhancement by peptide conjugates after siRNA-IV treatment
Assay type: cell-based
Conditions: primary mouse hepatocytes, siRNA-IV 125 nM baseline
Protocol: Cryopreserved primary Mouse hepatocytes (Bioreclamation, LLC) were placed into Collagen Type I coated 96-well plates at 25,000 cells per well in serum-containing InVitroGRO CP media (Bioreclamation, LLC) and allowed 5 hours to attach. Media was replaced with InVitroGRO HI media and cells were treated with siRNA-IV at 125 nM [siRNA] for 1 hour. Media was replaced with InVitroGRO HI media and cells were treated for approximately 16 hours with experimental Peptide conjugates at various concentrations to establish a dose-response curve. Peptide conjugates were washed out after 16 hours with InVitroGRO HI media and cells allowed to incubate for an additional 24 hours. Cells were then lysed and mRNA expression of the siRNA target was measured by RT-qPCR (Applied Biosystems Taqman reagents). mRNA silencing activity of each Peptide conjugate was expressed as an enhancement above the baseline activity of 125 nM siRNA-IV alone with respect to the untreated cells and all siRNA target Ct values were normalized to PPIB mRNA for each well (dddCt) and summarized.
The structure of TGN-S-S-peptide is shown below and the activity data is listed in Table 5 (siRNA-IV concentration was kept at […]).

Row | Substance | In vitro dddCt (vs. baseline SCE dose) (Targeted peptide dose 8 nM) | In vitro dddCt (vs. baseline SCE dose) (Targeted peptide dose 40 nM) | In vitro dddCt (vs. baseline SCE dose) (Targeted peptide dose 200 nM) | In vitro dddCt (vs. baseline SCE dose) (Targeted peptide dose 1000 nM) | In vitro dddCt (vs. baseline SCE dose) (Targeted peptide dose 5000 nM)
1 | TGN-S-S-SEQ ID NO: 1761 (D) ([dC]G[dL][dF]G[dE][dI][dE][dE][dL][dI][dE][dE]G[dL][dE][dN][dW][dI][dD][dW]G[dN]G; not fully specified (residue 1); also: disulfide to TGN peptide via Cys1; listed as Homo sapiens) | 0.08 | −0.25 | −0.22 | −0.07 | −0.11
2 | TGN-S-S-SEQ ID NO: 1762 (D) ([dC]G[dL][dF]G[dE][dI][dE][dE][dL][dI][dE][dE]G[dL][dE][dN][dF][dI][dD][dW]G[dN]G; not fully specified (residue 1); also: disulfide to TGN peptide via Cys1; listed as Homo sapiens) | −0.07 | 0.03 | −0.17 | −0.39 | −0.08
3 | TGN-S-S-SEQ ID NO: 1763 (D) ([dC]G[dL][dF]G[dE][dI][dE][dE][dL][dI][dE][dE]G[dL][dE][dN][dL][dW][dD][dW]G[dN]G; not fully specified (residue 1); also: disulfide to TGN peptide via Cys1; listed as Homo sapiens) | −0.13 | −0.67 | −1.26 | −1.44 | −1.29
4 | TGN-S-S-SEQ ID NO: 1764 (D) ([dC]G[dL][dF]G[dE][dI][dE][dE][dL][dI][dE][dE]G[dL][dE][dN][dL][dV][dD][dW]G[dN]G; not fully specified (residue 1); also: TGN conjugated via disulfide at Cys1; listed as Homo sapiens) | −0.03 | −0.41 | −0.78 | −0.62 | −0.75
5 | TGN-S-S-SEQ ID NO: 1765 (D) ([dC]G[dL][dF]G[dE][dI][dE][dE][dL][dI][dE][dE]G[dL][dE][dN][dL][dI][dE][dW]G[dN]G; not fully specified (residue 1); also: TGN conjugated via disulfide at Cys1; listed as Homo sapiens) | −0.04 | −0.38 | −0.88 | −1.23 | −1.23
6 | TGN-S-S-SEQ ID NO: 1772 (D) ([dC]G[dL][dF][dE][dA][dL][dL][dE][dL][dL][dE][dS][dL][dW][dE][dL][dL][dL][dE][dA]G[dY]G; not fully specified (residue 1); also: TGN conjugated via disulfide at Cys1; listed as Homo sapiens) | 0.03 | −0.15 | −0.15 | −0.17 | −0.08
7 | TGN-S-S-SEQ ID NO: 1775(D) ([dC]G[dL][dF][dE][dA][dL][dL][dE][dL][dL][dE][dS][dL][dW][dE][dL][dL][dL][dE][dA]; not fully specified (residue 1); also: TGN conjugated via disulfide at Cys1; listed as Homo sapiens) | −0.1 | −0.14 | −0.14 | −0.11 | −0.37
8 | TGN-S-S-SEQ ID NO: 1777 (D) ([dC]G[dN][dF]G[dE][dI][dE][dE][dL][dI][dE][dE]G[dL][dE][dN][dL][dI][dD][dW]G[dN]G; not fully specified (residue 1); also: TGN conjugated via disulfide at Cys1; listed as Homo sapiens) | −0.18 | 0.28 | −0.13 | −0.13 | 0.09
9 | TGN-S-S-SEQ ID NO: 1778 (D) ([dC]G[dL][dF][dA][dE][dI][dE][dE][dL][dI][dE][dE]G[dL][dE][dN][dL][dI][dD][dW]G[dN]G; not fully specified (residue 1); also: TGN conjugated via disulfide at Cys1; listed as Homo sapiens) | −0.38 | −0.57 | −0.91 | −1.54 | 
10 | TGN-S-S-SEQ ID NO: 1779(D) ([dC]G[dL][dF][dE][dE][dI][dE][dE][dL][dI][dE][dE]G[dL][dE][dN][dL][dI][dD][dW]G[dN]G; not fully specified (residue 1); also: TGN conjugated via disulfide at Cys1; listed as Homo sapiens) | −0.18 | −0.24 | −1.29 | −1.52 | −1.51
11 | TGN-S-S-SEQ ID NO: 1780 (D) ([dC]G[dL][dF]G[dE][dI][dA][dE][dL][dI][dE][dE]G[dL][dE][dN][dL][dI][dD][dW]G[dN]G; not fully specified (residue 1); also: TGN conjugated via disulfide at Cys1; listed as Homo sapiens) | −0.11 | −1.05 | −2.83 | 0.18 | −3.2
12 | TGN-S-S-SEQ ID NO: 1781 (D) ([dC][dE][dL][dF]G[dE][dI][dE][dE][dL][dI][dE][dE]G[dL][dE][dN][dL][dI][dD][dW]G[dN]G; not fully specified (residue 1); also: TGN conjugated via disulfide at Cys1; listed as Homo sapiens) | −0.01 | −0.02 | 0.03 | −0.01 | 0.01
13 | TGN-S-S-SEQ ID NO: 1782 (D) ([dC][dA][dL][dF]G[dE][dI][dE][dE][dL][dI][dE][dE]G[dL][dE][dN][dL][dI][dD][dW]G[dN]G; not fully specified (residue 1); also: TGN conjugated via disulfide at Cys1; listed as Homo sapiens) | −0.14 | 0.43 | −0.17 | −0.21 | 
14 | TGN-S-S-SEQ ID NO: 1784 (D) ([dC]G[dW][dF]G[dE][dI][dE][dE][dL][dI][dE][dE]G[dL][dE][dN][dL][dI][dD][dW]G[dN]G; not fully specified (residue 1); also: TGN conjugated via disulfide at Cys1; listed as Homo sapiens) | 0.07 | −0.22 | −0.57 | −1.01 | −0.81
15 | TGN-S-S-SEQ ID NO: 1785 (D) ([dC]G[dL][dF]G[dE][dL][dE][dE][dL][dI][dE][dE]G[dL][dE][dN][dL][dI][dD][dW]G[dN]G; not fully specified (residue 1); also: TGN conjugated via disulfide at Cys1; listed as Homo sapiens) | −0.1 | −0.44 | −1.68 | 0.84 | −2.03
16 | TGN-S-S-SEQ ID NO: 1786 (D) ([dC]G[dL][dF]G[dE][dI][dE][dE][dL][dW][dE][dE]G[dL][dE][dN][dL][dI][dD][dW]G[dN]G; not fully specified (residue 1); also: TGN conjugated via disulfide at Cys1; listed as Homo sapiens) | 0.17 | 0.13 | 0.06 | 0.06 | 0.18
17 | TGN-S-S-SEQ ID NO: 1793 (D) ([dC]G[dL][dL]G[dE][dI][dE][dE][dL][dI][dE][dE]G[dL][dE][dN][dL][dI][dD][dW]G[dN]G; not fully specified (residue 1); also: TGN conjugated via disulfide at Cys1; listed as Homo sapiens) | −0.02 | −1.04 | −2.36 | −2.75 | −2.65
